Measurements published in US20110053951A1, “METHODS FOR TREATING DISORDERS USING NMDA NR2B-SUBTYPE SELECTIVE ANTAGONIST” (EVOTEC NEUROSCIENCES GMBH, priority 2008, published 2011).
Where a name gives a salt, the structure may show the parent alone.

How the values were obtained:
[1] = test system: healthy volunteers; experiment: fMRI (BOLD) during Paired Associates Learning (PAL) task; assay type: in vivo, human
Description: (§1) A double blind, placebo controlled study was conducted in 19 healthy volunteers to investigate the role of NMDA receptor NR2B subunit selective antagonism on cognitive functions and neurophysiology as measured with magnetic resonance imaging (MRI). This study utilized functional MRI to determine changes in regional cerebral blood flow (rCBF) and the putative modulation of neural networks during performance of cognitive tasks by the subjects after they were administered the bis HCl salt of compound of formula (I).
The 19 healthy male volunteers who participated in this study were scanned using functional magnetic resonance imaging (fMRI) whilst performing cognitive tasks (including the PAL task described below in more detail) designed to measure associative learning, sustained attention, and episodic memory. These tasks were repeated on three study days two hours prior to the fMRI session. […]
Image preprocessing and analysis were carried out using Statistical Parametric Mapping software developed by the Functional Imaging Laboratory, UCL, (SPM v5.0, www.fillon.ucl.ac.ulc/spm/)., running under Matlab 7.0.1, and a blood oxygen level dependency (BOLD) was determined. […]

[2] = test system: healthy young and elderly subjects; experiment: Double-blind, placebo-controlled, single and multiple oral dose safety and tolerability study; assay type: in vivo, human
Description: A double-blind, placebo-controlled, randomized, single, and multiple oral dose study was conducted in order to determine safety and tolerability of the bis HCl salt of compound of formula (I) in healthy young and elderly subjects. The study was conducted in two parts.
Part 1 comprised an ascending single dose, sequential group study in 48 young male subjects, incorporating a two-period crossover arm to investigate the effect of food. Part 2 comprised an ascending multiple dose, sequential group study in 24 young male subjects and an ascending single and multiple dose, sequential group study in 18 elderly subjects (10 males and 8 females) subjects. On each dosing occasion, the subjects received a single capsule containing the appropriate amount of either the bis HCl salt of compound of formula (I) or microcrystalline cellulose. Treatments were administered orally with 240 ml water while the subjects were in a standing position.
The condition of each subject was monitored throughout the study. In addition, any signs and symptoms were observed and elicited at least once a day by open questioning, such as “How have you been feeling since you were last asked?” Subjects were also encouraged to report spontaneously any adverse events during the study.
Any adverse events or remedial actions were recorded. The nature, time of onset, duration, and severity were documented. Any clinically significant abnormalities found during the course of the study were followed up until they returned to normal or could be clinically explained.
A serious adverse event is defined as any untoward medical occurrence that at any dose either results in death, is life-threatening, requires inpatient hospitalization, or prolongs existing hospitalization, results in persistent or significant disability/incapacity, and/or results in a congenital anomaly/birth defect.
Important medical events that may not result in death, be life-threatening, or require hospitalization may be considered to be serious adverse events when, based upon appropriate medical judgment, they may jeopardize the subject or may require medical or surgical intervention to prevent one of the above-described outcomes.

[3] = test system: healthy volunteers; experiment: Continuous arterial spin labeling (CASL) perfusion MRI of regional cerebral blood flow (rCBF); assay type: in vivo, human; conditions: for increase in rCBF: anterior cingulate cluster
Description: as §1
The 19 healthy male volunteers who participated in this study were scanned using functional magnetic resonance imaging (fMRI) whilst performing cognitive tasks (including the PAL task described below in more detail) designed to measure associative learning, sustained attention, and episodic memory. These tasks were repeated on three study days two hours prior to the fMRI session. On these three separate occasions, the participants received a capsule containing either placebo (microcrystalline cellulose), 8 mg, or 15 mg of the bis HCl salt of compound of formula (I) such that all treatments were given to all participants. During the fMRI session, the tasks were presented in a randomized order to each subject; however, the order assigned was then maintained across all three study sessions. Additional practice on the tasks was offered to the participants before entering the scanner, and the instructions were repeated prior to each task being performed whilst in the scanner.
Images were acquired on a 1.5T GE Excite HDx system (General Electric, Milwaukee, Wis.). For all tasks a gradient-echo EPI sequence was used with TE=40 ms, FOV=24 cm, and in-plane resolution of 3.75 mm^2 (matrix=64^2). Thirty-eight axial slices with thickness 3 mm (0.3 mm gap) approximately parallel to the AC/PC line were obtained. For the paired associates learning task TR=3000 ms. In addition, a high-resolution image was acquired using single shot EPI with TR=3000 ms, TE=40 ms, FOV=24 cm, 3 mm slice thickness with 0.3 mm gap, matrix=128^2, and 43 slices. This image was used to determine coregistration parameters.
Whole-brain resting perfusion images were acquired with a continuous arterial spin labeling (CASL) sequence consisting of a pseudo-continuous flow-driven, adiabatic inversion scheme and a continuous 3D fast spin echo (FSE) sequence with an interleaved stack of variable density spirals acquisition (Alsop and Detre (1998) Multisection cerebral blood flow MR imaging with continuous arterial spin labeling. Radiology 208: 410-6). CASL perfusion images are able to delineate grey and white matter and provide high resolution quantification of rCBF across the whole brain. Because of the genuine 3-dimensional encoding and readout of this multi-shot technique, and the refocusing of magnetic susceptibility induced signal distortions, the maps of whole brain rCBF obtainable with this technique are of good image quality and exquisite spatial resolution.
For the perfusion images, brain volumes were first normalized into a standard anatomical space (International Consortium on Brain Mapping—ICBM), using affine registration and non-linear transformations. Normalization utilized a single image to which all three CASL sessions were coregistered in order to reduce the likelihood of preprocessing-dependent differences between the drug and placebo session images. All images were spatially smoothed using a Gaussian kernel full-width at half-maximum filter of 6×6×6 mm to improve signal-to-noise ratio and allow for inherent functional and gyral variability across participants.
Image preprocessing and analysis were carried out using Statistical Parametric Mapping software developed by the Functional Imaging Laboratory, UCL, (SPM v5.0, www.fillon.ucl.ac.ulc/spm/)., running under Matlab 7.0.1, and a blood oxygen level dependency (BOLD) was determined. BOLD changes to cognitive tasks represent changes of neuronal activities of respective brain areas.

[4] = target: NR2B subtype of the NMDA receptor (Homo sapiens, UniProt Q05586+Q13224); experiment: Receptor occupancy estimated by extrapolation from CSF concentrations; assay type: in vivo; conditions: daily dose of 8 mg; extrapolated from CSF concentrations; compared with therapeutic dosages of memantine
Description: CSF samples were stored immediately in an upright position at a temperature of −70° C. or below until shipment. Compound of formula (I) concentrations were measured by a specific and validated LC-MS-MS method. […] Such concentrations in the CSF have been extrapolated to estimate the extent of occupancy of the NR2B subtype of the NMDA receptor.

[5] = Cerebrospinal fluid (CSF) penetration by lumbar puncture, LC-MS-MS; assay type: in vivo, human; conditions: 8 mg daily for 8 days, six healthy subjects, 3 to 4 hours after dosing on day 8
Description: One lumbar puncture per subject was performed on day 8 of treatment (daily dose of 8 mg of bis HCl salt of the compound of formula (I)), in the timeframe of 3 to 4 hours after dosing.
All care was taken to avoid contamination of the collected CSF sample with blood. Thus, only clear CSF was collected, after blood-contaminated liquid has left the cannula. Bloody taps were discarded.
Samples were aliquoted per time point for the measurement of compound of formula (I) as follows: a 0.5 ml CSF sample was aliquoted in empty dry polypropylene tubes from the ≈5 ml CSF collected at each scheduled time point.
CSF samples were stored immediately in an upright position at a temperature of −70° C. or below until shipment. Compound of formula (I) concentrations were measured by a specific and validated LC-MS-MS method. Cerebrospinal fluid (CSF) penetration has been assessed in six healthy subjects receiving 8 mg of bis HCl salt of compound of formula (I) daily for 8 days. […] Such concentrations in the CSF have been extrapolated to estimate the extent of occupancy of the NR2B subtype of the NMDA receptor. […] The selectivity of the compound of formula (I) and salts thereof in combination with the good penetration of the blood brain barrier at well-tolerated dosages according to the present invention provides a therapeutic advantage.

[6] = throughout the study, young and elderly subjects

Chain of NR2B subtype of the NMDA receptor (Q13224 27-1484, other chains not shown): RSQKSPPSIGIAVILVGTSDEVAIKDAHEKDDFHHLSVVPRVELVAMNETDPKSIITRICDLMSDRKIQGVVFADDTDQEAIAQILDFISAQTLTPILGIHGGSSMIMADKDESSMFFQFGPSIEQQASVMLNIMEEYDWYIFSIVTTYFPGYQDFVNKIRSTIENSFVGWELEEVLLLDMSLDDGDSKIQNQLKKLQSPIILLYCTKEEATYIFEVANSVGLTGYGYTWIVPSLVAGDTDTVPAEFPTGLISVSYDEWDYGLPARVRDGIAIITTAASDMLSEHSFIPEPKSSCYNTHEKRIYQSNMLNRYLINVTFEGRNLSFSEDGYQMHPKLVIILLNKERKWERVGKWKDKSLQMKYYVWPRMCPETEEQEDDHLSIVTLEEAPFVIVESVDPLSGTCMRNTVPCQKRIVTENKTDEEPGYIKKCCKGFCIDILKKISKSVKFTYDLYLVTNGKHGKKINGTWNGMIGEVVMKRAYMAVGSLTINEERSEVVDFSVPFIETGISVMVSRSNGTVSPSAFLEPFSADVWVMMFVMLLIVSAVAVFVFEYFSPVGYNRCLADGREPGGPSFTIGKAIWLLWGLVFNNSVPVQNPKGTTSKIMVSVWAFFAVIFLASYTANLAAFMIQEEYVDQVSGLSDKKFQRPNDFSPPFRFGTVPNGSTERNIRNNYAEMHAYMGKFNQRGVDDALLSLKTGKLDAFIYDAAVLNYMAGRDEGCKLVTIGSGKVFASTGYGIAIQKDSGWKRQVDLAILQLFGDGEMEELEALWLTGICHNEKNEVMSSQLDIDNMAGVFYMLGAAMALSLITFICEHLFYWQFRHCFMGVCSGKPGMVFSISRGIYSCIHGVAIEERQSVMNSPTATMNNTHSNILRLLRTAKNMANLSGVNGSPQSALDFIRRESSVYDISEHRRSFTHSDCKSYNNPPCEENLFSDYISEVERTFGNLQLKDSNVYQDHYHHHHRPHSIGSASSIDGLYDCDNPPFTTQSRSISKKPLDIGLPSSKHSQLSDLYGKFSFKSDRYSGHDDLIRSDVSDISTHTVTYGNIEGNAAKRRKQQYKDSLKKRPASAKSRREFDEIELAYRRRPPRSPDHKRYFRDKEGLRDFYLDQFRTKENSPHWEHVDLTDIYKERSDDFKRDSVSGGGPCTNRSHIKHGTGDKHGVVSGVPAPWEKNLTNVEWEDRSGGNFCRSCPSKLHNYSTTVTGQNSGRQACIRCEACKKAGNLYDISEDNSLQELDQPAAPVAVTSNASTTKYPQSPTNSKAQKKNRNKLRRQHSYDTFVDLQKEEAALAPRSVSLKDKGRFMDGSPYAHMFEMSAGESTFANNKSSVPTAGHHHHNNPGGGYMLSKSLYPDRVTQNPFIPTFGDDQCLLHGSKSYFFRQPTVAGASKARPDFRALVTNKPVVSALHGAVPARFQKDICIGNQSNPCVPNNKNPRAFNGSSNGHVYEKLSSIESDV

Compound | functional performance of subjects in PAL ([1]; 8 mg and 15 mg oral, healthy young subjects) | BOLD signal during retrieval in memory retrieval network ([1]; placebo, 8 mg, 15 mg oral, PAL task, preliminary analysis) | tolerability ([2]; elderly males and females, multiple oral doses (over 8 days) of up to 3 mg twice daily) | tolerability ([2]; elderly males and females, single oral doses of up to 4 mg) | vital signs and electrocardiogram (ECG) parameters ([2]; following single or multiple dosing in young or elderly subjects) | incidence of adverse events [2, 6] | serious or severe adverse events [2, 6] | tolerability ([2]; young males, multiple oral doses (over 8 days) of up to 8 mg once daily) | tolerability ([2]; young males, single oral doses of up to 15 mg (including 2, 5 and 10 mg)) | decreases in rCBF ([3]; 8 mg and 15 mg oral) | areas of increased/decreased perfusion ([3]; 8 mg oral vs placebo) | increase in rCBF ([3]; 8 mg oral) | rCBF, direct comparison with placebo ([3]; 15 mg oral, anterior cingulate) | increase in rCBF ([3]; 15 mg oral) | rCBF normalized to global signal, main effect of drug ([3]; averaged over 8 mg and 15 mg vs placebo, genu of the anterior cingulate cortex) | dose response relationship of perfusion between 8 mg and 15 mg ([3]; formal comparison across the entire brain volume, ignoring placebo) | global perfusion (whole brain) ([3]; placebo, 8 mg and 15 mg oral, CASL perfusion maps) | regional effects on absolute perfusion ([3]; placebo, 8 mg and 15 mg, threshold p=0.05 corrected across whole brain) | receptor occupancy [4] | CSF concentration relative to plasma concentration [5]
Cc1nccn1Cc1cc(-c2ccc(F)c(C(F)F)c2)cnn1 [bis HCl salt of compound of formula (I), 5-(3-difluoromethyl-4-fluoro-phenyl)-3-(2-methyl-imidazol-1-yl-methyl)-pyridazine] | unaffected | dose dependent increases in BOLD signal | very well tolerated | very well tolerated | no apparent trends | low incidence of mainly mild adverse events | no serious or severe adverse events | very well tolerated | very well tolerated | no clusters of voxels showing significant decreases in rCBF | No statistically significant changes | 17.5% | highly significant cluster of increased rCBF | 17.9% | increased signal | No changes were seen | no difference across the three conditions studied | no significant clusters where signal differed | – | –
Cc1nccn1Cc1cc(-c2ccc(F)c(C(F)F)c2)cnn1 [compound of formula (I), 5-(3-difluoromethyl-4-fluoro-phenyl)-3-(2-methyl-imidazol-1-yl-methyl)-pyridazine] | – | – | – | – | – | – | – | – | – | – | – | – | – | – | – | – | – | – | greater than that, which corresponds to currently used therapeutic dosages of memantine | largely corresponds to the free (unbound) plasma concentrations
